# Test results: US20060233873A1, “Dispersion of taste masked crystals or granules of active substances, chewable soft capsules filled with said dispersion, and process for preparing same” (priority 2003, published 2006)
# Experiment: Solubility of the active in lipophilic vehicles at 25° C., HPLC method
# Settings: oil or lipid
# Procedure: In this example, lipophilic vehicles with different solubilizing powers for dextromethorphan HBr were tested.
smiles,measurement,setting,value
COc1ccc2c(c1)[C@]13CCCC[C@@H]1[C@H](C2)N(C)CC3 [dextromethorphan HBr],solubility,in Dimethicone 100 silicone oil,< 1 µg/mL
same,solubility,in medium chain triglycerides Mygliol 812N,120 µg/mL
same,solubility,in paraffin oil,~1 µg/mL
same,solubility,in soya oil,~6 µg/mL
